Experimental findings from ChEMBL document CHEMBL6109121, “Discovery of Novel Sulfonylurea NLRP3 Inflammasome Inhibitor for the Treatment of Multiple Inflammatory Diseases” (J Med Chem, 2025) are described below.

Active and inactive are the calls of the source. The rule behind the calls is not given here.

A short description of experiment [1]: Inhibition of NLRP3 inflammasome activation in LPS/ATP-stimulated male C57BL/6J mouse BMDM cells assessed as inhibition of IL-1beta secretion […] for 4 hrs followed by compound administration for 30 mins and measured after 1 hrs of ATP addition by ELISA. Format: cell-based. (An ELISA detects its analyte on a solid surface through an enzyme-linked reagent.)

Experiment [2] is described as follows: Cytotoxicity against male C57BL/6J mouse BMDM cells. Format: functional.
Experiment [3] is described as follows: Inhibition of NLRP3 inflammasome activation in human THP-1 cells assessed as inhibition of IL-1beta release. Format: cell-based.
In experiment [4] the test system is Mus musculus. Briefly: Effect on TNF-alpha level in serum of LPS/ATP-induced acute peritonitis male C57BL/6J mouse model at 20 mg/kg, po preadministered with compound for 1 hrs followed by LPS addition for 2 hrs and measured 12 hrs post ATP administration by ELISA. Particulars: time 13.0 hrs. It counts as functional, organism-based.
In experiment [5] the test system is Mus musculus. As to the kind of experiment: Antidiabetic activity in HFD-fed STZ-induced diabetic kidney disease male C57BL/6J mouse model assessed as improvement of glucose tolerance at 20 mg/kg fed with high fat diet for 4 weeks followed by STZ administration for 5 days further administered with compound via gavage for 6 weeks and measured after 120 mins of glucose administration by OGTT. It counts as functional, organism-based. Particulars: time 60600.0 min.

In experiment [6] the test system is Mus musculus. Briefly: Antidiabetic activity in HFD-fed STZ-induced diabetic kidney disease male C57BL/6J mouse model assessed as reduction in macrophage infiltration in kidney at 20 mg/kg fed with high fat diet for 4 weeks followed by STZ administration for 5 days and measured 6 weeks post compound administration via gavage by F4/80 immunostaining based analysis. It counts as functional, organism-based.

The subject of experiment [7] is Mus musculus. Briefly: Anti-colitis activity in DSS-induced acute ulcerative colitis male C57BL/6J mouse model assessed as reduction in body weight loss at 5 mg/kg, po preadministered with DSS for 7 days followed by 3 days of drinking water and measured after 10 days of compound administration. It counts as functional, organism-based. To be noted: time 10.0 day.
In experiment [8] the test system is Mus musculus. As to the kind of experiment: Anti-colitis activity in DSS-induced acute ulcerative colitis male C57BL/6J mouse model assessed as improvement in stool consistency at 5 mg/kg, po preadministered with DSS for 7 days followed by 3 days of drinking water and measured after 10 days of compound administration. Format: functional, organism-based. Particulars: time 10.0 day.

For experiment [9], the system named is Mus musculus. As to the kind of experiment: Anti-colitis activity in DSS-induced acute ulcerative colitis male C57BL/6J mouse model assessed as reduction in fecal bleeding at 5 mg/kg, po preadministered with DSS for 7 days followed by 3 days of drinking water and measured after 10 days of compound administration. It counts as functional, organism-based. To be noted: time 10.0 day.

Experiment [10] relates to Mus musculus. Briefly: Anti-colitis activity in DSS-induced acute ulcerative colitis male C57BL/6J mouse model assessed as decrease in disease activity index score at 5 mg/kg, po preadministered with DSS for 7 days followed by 3 days of drinking water and measured after 10 days of compound administration. It counts as functional, organism-based. Particulars: time 10.0 day.

For experiment [11], the system named is Mus musculus. As to the kind of experiment: Anti-colitis activity in DSS-induced acute ulcerative colitis male C57BL/6J mouse model assessed as increase in colon length at 5 mg/kg, po preadministered with DSS for 7 days followed by 3 days of drinking water and measured after 10 days of compound administration. It counts as functional, organism-based. To be noted: time 10.0 day.

Experiment [12] has as its target NACHT, LRR and PYD domains-containing protein 3 (Mus musculus) (UniProt Q8R4B8). To be noted: C57BL/6J, dose 20.0 mg/kg, route po, time 13.0 hrs.

Chain of NACHT, LRR and PYD domains-containing protein 3 (Mus musculus) (Q8R4B8 whole entry, the tested form may be a part): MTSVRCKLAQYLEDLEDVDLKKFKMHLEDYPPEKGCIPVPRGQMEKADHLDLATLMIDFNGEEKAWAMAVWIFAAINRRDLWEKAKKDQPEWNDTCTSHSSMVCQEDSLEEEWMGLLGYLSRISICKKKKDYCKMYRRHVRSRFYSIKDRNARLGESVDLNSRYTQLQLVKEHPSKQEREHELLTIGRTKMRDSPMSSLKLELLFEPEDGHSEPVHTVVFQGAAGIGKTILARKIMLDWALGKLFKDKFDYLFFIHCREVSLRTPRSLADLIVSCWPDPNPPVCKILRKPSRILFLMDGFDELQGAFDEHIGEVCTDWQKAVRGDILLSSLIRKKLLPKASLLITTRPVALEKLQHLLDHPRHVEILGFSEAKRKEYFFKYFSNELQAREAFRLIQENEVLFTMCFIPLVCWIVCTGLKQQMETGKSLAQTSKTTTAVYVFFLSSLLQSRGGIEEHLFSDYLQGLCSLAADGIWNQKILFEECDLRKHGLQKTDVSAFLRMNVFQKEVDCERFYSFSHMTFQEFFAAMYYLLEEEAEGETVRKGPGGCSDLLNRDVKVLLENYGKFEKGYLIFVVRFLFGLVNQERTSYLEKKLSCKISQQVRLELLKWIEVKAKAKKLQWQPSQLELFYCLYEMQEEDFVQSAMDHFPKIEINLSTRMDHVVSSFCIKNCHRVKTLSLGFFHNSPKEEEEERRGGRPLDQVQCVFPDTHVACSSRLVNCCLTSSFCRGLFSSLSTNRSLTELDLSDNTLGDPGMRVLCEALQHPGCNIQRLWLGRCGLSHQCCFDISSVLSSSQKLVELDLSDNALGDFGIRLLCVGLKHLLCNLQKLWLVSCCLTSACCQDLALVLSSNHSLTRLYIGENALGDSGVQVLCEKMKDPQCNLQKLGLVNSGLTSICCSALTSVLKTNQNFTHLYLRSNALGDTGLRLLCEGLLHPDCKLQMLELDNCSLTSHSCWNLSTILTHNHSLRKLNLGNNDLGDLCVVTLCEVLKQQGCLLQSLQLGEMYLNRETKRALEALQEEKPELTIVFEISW

For the compound `CN(C1CCN(Cc2ccccc2)CC1)S(=O)(=O)NC(=O)Nc1c2c(cc3c1CCC3)CCC2`, the IC50 (commonly the concentration that gives 50% inhibition) in [1] was over 50 µM. Moreover, the CC50 (commonly the concentration that lowers cell viability or growth by half) in experiment [2] was over 100 µM.
The corresponding values for `O=C(Nc1c2c(cc3c1CCC3)CCC2)NS(=O)(=O)N1CCc2ccccc2C1` are 0.317 µM and over 100 µM.
For `O=C(Nc1c2c(cc3c1CCC3)CCC2)NS(=O)(=O)N1CCC(F)(F)CC1`, the IC50 in experiment [1] is 1.12 µM. Moreover, the CC50 in experiment [2] was over 100 µM.
For the compound `O=C(Nc1c2c(cc3c1CCC3)CCC2)NS(=O)(=O)N1CCN2CCC1CC2`, in experiment [1], the IC50 was determined as 0.185 µM. The compound further returned a half-maximal cytotoxic concentration (CC50) in experiment [2] of over 100 µM.
In the case of `CC(C)(O)c1coc(S(=O)(=O)NC(=O)Nc2c3c(cc4c2CCC4)CCC3)c1`, the values for the half-maximal inhibitory concentration (IC50) in experiment [1] and in experiment [3] were 0.036 µM and 58 nM, respectively. Further, the result in the experiment with Mus musculus [4], in the experiment with Mus musculus [5], with Mus musculus [6] and in the experiment on Mus musculus [11] was inactive. Moreover, the Activity result in the experiment with Mus musculus [7] is recorded as “Active; Significant Difference Not Observed”. Also, the outcome in the experiment on Mus musculus [8], in the experiment on Mus musculus [9] and in the experiment with Mus musculus [10] was Active. Also, in experiment [12], the inhibition entry is “Active”.
In the case of `CC(C)(O)c1coc(S(=O)(=O)NC(=O)Nc2ccccc2Oc2ccccc2)c1`, the IC50 in [1] was over 50 µM. The compound also registered a cytotoxic concentration (CC50) in experiment [2] of over 100 µM.
In the same order, the values of `O=C(Nc1c2c(cc3c1CCC3)CCC2)NS(=O)(=O)NC1CCN(C2CC2)CC1` are 1.95 µM and over 100 µM.
In the case of `CN(C1CCOCC1)S(=O)(=O)NC(=O)Nc1c2c(cc3c1CCC3)CCC2`, in experiment [1], the IC50 was 0.544 µM. The CC50 in experiment [2] was over 100 µM.
`CN1CCC(N(C)S(=O)(=O)NC(=O)Nc2cc(C(C)(C)C)ccc2-c2ccc(C(C)(C)C)cc2)CC1`: the IC50 in experiment [1] is over 50 µM. This compound also gave a CC50 in experiment [2] of 10.2 µM.
Consider `CN1CCC(N(C)S(=O)(=O)NC(=O)Nc2cccc3c2NC(=O)C3)CC1`, for which the IC50 in [1] is over 50 µM. In [2], this compound returned a half-maximal cytotoxic concentration (CC50) of over 100 µM.
The corresponding values for `CC(C)(O)c1coc(S(=O)(=O)NC(=O)Nc2ccccc2C(=O)c2ccccc2)c1` are 3.82 µM and over 100 µM.
For `CN1CCC(NS(=O)(=O)NC(=O)Nc2c3c(cc4c2CCC4)CCC3)CC1`, the IC50 in experiment [1] is 0.979 µM. The compound also returned a CC50 in experiment [2] of over 100 µM.
In the same order, the values of `O=C(Nc1c2c(cc3c1CCC3)CCC2)NS(=O)(=O)Nc1cnn(C2CCOCC2)c1` are 0.139 µM and over 100 µM.
In the case of `CC(C)(O)c1coc(S(=O)(=O)NC(=O)Nc2ccccc2Sc2ccccc2)c1`, in experiment [1], the 50% inhibitory concentration (IC50) stood at 35.1 µM. This compound also had a CC50 in experiment [2] of over 100 µM.
As to `CN1CCC(N(C)S(=O)(=O)NC(=O)Nc2cccc3c2oc2ccccc23)CC1`, the IC50 in [1] is over 50 µM. Moreover, the CC50 in [2] was over 100 µM.
For the compound `CC(C)(O)c1coc(S(=O)(=O)NC(=O)Nc2ccccc2Cc2ccccc2)c1`, in experiment [1], the IC50 is over 50 µM. Besides, the cytotoxic concentration (CC50) in [2] is over 100 µM.
For the compound `Cc1ccc2cccc(NC(=O)NS(=O)(=O)N(C)C3CCN(C)CC3)c2n1`, the IC50 in experiment [1] is over 50 µM. For the same compound, the CC50 in experiment [2] is over 100 µM.
As to `CN1CCC(N(C)S(=O)(=O)NC(=O)Nc2ccc3c(c2)Cc2ccccc2-3)CC1`, in [1], the half-inhibitory concentration (IC50) is over 50 µM. In addition, in [2], the CC50 is over 100 µM.
In the case of `CN1CCC(n2cc(NS(=O)(=O)NC(=O)Nc3c4c(cc5c3CCC5)CCC4)cn2)CC1`, the IC50 in experiment [1] was 2.99 µM. The compound also came in with a CC50 in [2] of over 100 µM.
Regarding `CN1CCC(N(C)S(=O)(=O)NC(=O)Nc2cccc3c2C(=O)c2ccccc2-3)CC1`, the IC50 in [1] is over 50 µM. In [2], this compound registered a half-maximal cytotoxic concentration (CC50) of over 100 µM.
On to `CN1CCC(N(C)S(=O)(=O)NC(=O)Nc2c3c(cc4c2CCC4)CCC3)C1` (centres undefined), for which the half-maximal inhibitory concentration (IC50) in experiment [1] amounted to 0.122 µM. The CC50 in experiment [2] was over 100 µM.
For `Cn1cc(NS(=O)(=O)NC(=O)Nc2c3c(cc4c2CCC4)CCC3)cn1`, the concentration for half-maximal inhibition (IC50) in experiment [1] came to 0.155 µM. The compound also yielded a CC50 in experiment [2] of over 100 µM.
The corresponding values for `CC(C)(O)c1coc(S(=O)(=O)NC(=O)Nc2ccccc2C(=O)c2ccccn2)c1` are over 50 µM and over 100 µM.
Consider `CN(c1ccncc1)S(=O)(=O)NC(=O)Nc1c2c(cc3c1CCC3)CCC2`, for which the half-inhibitory concentration (IC50) in experiment [1] turned out to be 4.43 µM. The CC50 in [2] was over 100 µM.
The corresponding values for `CC(C)(O)c1coc(S(=O)(=O)NC(=O)Nc2ccccc2C(=O)N2CCCC2)c1` are 19.1 µM and over 100 µM.
With `CC(C)(O)c1coc(S(=O)(=O)NC(=O)Nc2ccccc2C(=O)N2CCOCC2)c1`, the IC50 in [1] was over 50 µM. The half-maximal cytotoxic concentration (CC50) in experiment [2] was over 100 µM.
Take `C=C(c1ccccc1)c1ccccc1NC(=O)NS(=O)(=O)c1cc(C(C)(C)O)co1`: in [1], the IC50 came to 19.8 µM. In addition, the half-maximal cytotoxic concentration (CC50) in [2] is over 100 µM.
`O=C(Nc1c2c(cc3c1CCC3)CCC2)NS(=O)(=O)N1CCNC2(CC2)C1`: in experiment [1], the IC50 is 2.03 µM. This compound also came in with a CC50 in experiment [2] of over 100 µM.
In the same order, the values of `CCN1CCC(N(C)S(=O)(=O)NC(=O)Nc2c3c(cc4c2CCC4)CCC3)CC1` are 0.724 µM and over 100 µM.
Consider `CN1CCC(N(C)S(=O)(=O)NC(=O)Nc2cccc3c2OCO3)CC1`, for which, in experiment [1], the IC50 is over 50 µM. The half-maximal cytotoxic concentration (CC50) in experiment [2] is over 100 µM.
As for `CC(=O)N1CCC(NS(=O)(=O)NC(=O)Nc2c3c(cc4c2CCC4)CCC3)CC1`, the IC50 in experiment [1] came out at 5.37 µM. The same compound returned a CC50 in [2] of over 100 µM.
The corresponding values for `CC(C)(O)c1coc(S(=O)(=O)NC(=O)Nc2ccccc2C(=O)c2ccoc2)c1` are over 50 µM and over 100 µM.
For the compound `CN(C)C(=O)c1ccccc1NC(=O)NS(=O)(=O)c1cc(C(C)(C)O)co1`, the IC50 in experiment [1] was over 50 µM. Further, the 50% cytotoxic concentration (CC50) in experiment [2] is over 100 µM.
The corresponding values for `CC(C)N1CCC(NS(=O)(=O)NC(=O)Nc2c3c(cc4c2CCC4)CCC3)CC1` are 2.9 µM and over 100 µM.
Turning to `CN1CCC(N(C)S(=O)(=O)NC(=O)Nc2ccccc2C(=O)c2ccccc2)CC1`, the IC50 in experiment [1] stood at 18 µM. In [2], this compound displayed a half-maximal cytotoxic concentration (CC50) of over 100 µM.
